Measurements: PubChem BioAssay (NCI)
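Dose response: 5 concentrations. Exposure: 48 h. Format: 96-well plates. Endpoint: linear interpolation; highest concentration if not reached. TGI is the concentration that stops growth completely.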

Assays:
Test in all cases: NCI tumour cell line growth inhibition, 48 h
[1] = test system: HOP-92 NSCLC
[2] = test system: HS 578T breast
[3] = test system: MOLT-4 leukemia
[4] = test system: UO-31 renal
[5] = test system: 786-0 renal
[6] = test system: SR leukemia
[7] = test system: A549 NSCLC
[8] = test system: SNB-75 CNS
[9] = test system: T-47D breast
[10] = test system: UACC-257 melanoma
[11] = test system: HL-60(TB) leukemia
[12] = test system: NCI/ADR-RES ovarian
[13] = test system: NCI-H460 lung
[14] = test system: SNB-19 CNS
[15] = test system: NCI-H23 lung
[16] = test system: CCRF-CEM leukemia
[17] = test system: EKVX NSCLC
[18] = test system: A498 renal
[19] = test system: K-562 leukemia
[20] = test system: RXF 393 renal
[21] = test system: OVCAR-3 ovarian
[22] = test system: DU-145 prostate
[23] = test system: NCI-H226 lung
[24] = test system: PC-3 prostate
[25] = test system: SK-OV-3 ovarian
[26] = test system: COLO 205 colon
[27] = test system: TK-10 renal
[28] = test system: KM12 colon
[29] = test system: MDA-MB-435
[30] = test system: UACC-62 melanoma
[31] = test system: MDA-N
[32] = test system: SN12C renal
[33] = test system: OVCAR-5 ovarian
[34] = test system: M14 melanoma
[35] = test system: HOP-62 NSCLC
[36] = test system: HT29 colon
[37] = test system: ACHN renal
[38] = test system: CAKI-1 renal
[39] = test system: SF-539 CNS
[40] = test system: HCT-116 colon
[41] = test system: IGROV1 ovarian
[42] = test system: SW-620 colon
[43] = test system: RPMI-8226 leukemia
[44] = test system: MDA-MB-231 breast
[45] = test system: SK-MEL-5 melanoma
[46] = test system: SF-295 CNS
[47] = test system: MCF7 breast
[48] = test system: MALME-3M melanoma
[49] = test system: SF-268 CNS
[50] = test system: LOX IMVI melanoma
[51] = test system: OVCAR-8 ovarian
[52] = test system: SK-MEL-28 melanoma
[53] = test system: OVCAR-4 ovarian
[54] = test system: U251 CNS
[55] = test system: HCT-15 colon
[56] = test system: SK-MEL-2 melanoma
[57] = test system: HCC-2998 colon
[58] = test system: NCI-H522 lung

Cc1nnc2n1-c1ccccc1-c1[nH]c3ccccc3c1C2
TGI [1]: > 100 µM
TGI [2]: > 100 µM
TGI [3]: > 100 µM
TGI [4]: > 100 µM
TGI [5]: > 100 µM
TGI [6]: > 100 µM
TGI [7]: > 100 µM
TGI [8]: 61.7 µM
TGI [9]: > 100 µM
TGI [10]: > 100 µM
TGI [11]: 70.8 µM
TGI [12]: > 100 µM
TGI [13]: > 100 µM
TGI [14]: > 100 µM
TGI [15]: > 100 µM
TGI [16]: > 100 µM
TGI [17]: > 100 µM
TGI [18]: 78.2 µM
TGI [19]: > 100 µM
TGI [20]: > 100 µM
TGI [21]: > 100 µM
TGI [22]: > 100 µM
TGI [23]: > 100 µM
TGI [24]: > 100 µM
TGI [25]: > 100 µM
TGI [26]: > 100 µM
TGI [27]: > 100 µM
TGI [28]: > 100 µM
TGI [29]: > 100 µM
TGI [30]: > 100 µM
TGI [31]: > 100 µM
TGI [32]: > 100 µM
TGI [33]: > 100 µM
TGI [34]: > 100 µM
TGI [35]: > 100 µM
TGI [36]: > 100 µM
TGI [37]: > 100 µM
TGI [38]: > 100 µM
TGI [39]: > 100 µM
TGI [40]: > 100 µM
TGI [41]: > 100 µM
TGI [42]: > 100 µM
TGI [43]: > 100 µM
TGI [44]: > 100 µM
TGI [45]: > 100 µM
TGI [46]: > 100 µM
TGI [47]: > 100 µM
TGI [48]: > 100 µM
TGI [49]: > 100 µM
TGI [50]: > 100 µM
TGI [51]: > 100 µM
TGI [52]: > 100 µM
TGI [53]: > 100 µM

CC(C)(C)COC1C2(OCCO2)C2CCC1(C)C2(C)C (centres undefined)
TGI [1]: 70.2 µM
TGI [2]: 90.1 µM
TGI [3]: 39.7 µM
TGI [4]: 65.1 µM
TGI [5]: 34.5 µM
TGI [6]: 40.6 µM
TGI [7]: 48 µM
TGI [8]: 67.6 µM
TGI [9]: 68.5 µM
TGI [10]: 70.5 µM
TGI [11]: 44.2 µM
TGI [12]: > 100 µM
TGI [13]: > 100 µM
TGI [14]: 41.7 µM
TGI [15]: > 100 µM
TGI [16]: 37.8 µM
TGI [17]: 79.9 µM
TGI [18]: > 100 µM
TGI [19]: 35.7 µM
TGI [20]: 36 µM
TGI [21]: 33.3 µM
TGI [22]: > 100 µM
TGI [23]: > 100 µM
TGI [24]: 54.5 µM
TGI [25]: > 100 µM
TGI [26]: 91.1 µM
TGI [27]: > 100 µM
TGI [28]: 42 µM
TGI [29]: > 100 µM
TGI [54]: 34.3 µM
TGI [55]: 50 µM
TGI [30]: > 100 µM
TGI [31]: > 100 µM
TGI [33]: 73.8 µM
TGI [34]: > 100 µM
TGI [35]: 59.2 µM
TGI [36]: 74.4 µM
TGI [37]: 42.1 µM
TGI [38]: > 100 µM
TGI [39]: > 100 µM
TGI [41]: > 100 µM
TGI [42]: 37.9 µM
TGI [56]: 50.2 µM
TGI [43]: 41.7 µM
TGI [57]: > 100 µM
TGI [44]: > 100 µM
TGI [45]: > 100 µM
TGI [46]: 35.2 µM
TGI [47]: 37.3 µM
TGI [48]: 64 µM
TGI [49]: > 100 µM
TGI [50]: 38 µM
TGI [51]: 55.9 µM
TGI [52]: > 100 µM
TGI [53]: > 100 µM

CCOC(=O)C(COS(C)(=O)=O)(COS(C)(=O)=O)C(=O)OCC
TGI [1]: > 100 µM
TGI [2]: > 100 µM
TGI [3]: > 100 µM
TGI [4]: > 100 µM
TGI [6]: > 100 µM
TGI [7]: > 100 µM
TGI [8]: > 100 µM
TGI [9]: > 100 µM
TGI [10]: > 100 µM
TGI [12]: > 100 µM
TGI [13]: > 100 µM
TGI [14]: > 100 µM
TGI [15]: > 100 µM
TGI [16]: > 100 µM
TGI [18]: > 100 µM
TGI [19]: > 100 µM
TGI [20]: > 100 µM
TGI [21]: > 100 µM
TGI [22]: > 100 µM
TGI [23]: > 100 µM
TGI [24]: > 100 µM
TGI [25]: > 100 µM
TGI [26]: > 100 µM
TGI [27]: > 100 µM
TGI [28]: > 100 µM
TGI [29]: > 100 µM
TGI [54]: > 100 µM
TGI [55]: > 100 µM
TGI [31]: > 100 µM
TGI [32]: > 100 µM
TGI [34]: > 100 µM
TGI [36]: > 100 µM
TGI [37]: > 100 µM
TGI [40]: > 100 µM
TGI [58]: > 100 µM
TGI [42]: > 100 µM
TGI [57]: > 100 µM
TGI [44]: > 100 µM
TGI [45]: > 100 µM
TGI [46]: > 100 µM
TGI [47]: > 100 µM
TGI [49]: > 100 µM
TGI [50]: > 100 µM
TGI [51]: > 100 µM
TGI [52]: > 100 µM
TGI [53]: > 100 µM
